Our source for the IC50 values is patent publication US12473304B2, “Heterocyclic PAD4 inhibitors” (BRISTOL-MYERS SQUIBB COMPANY, priority 2020, dated 2025).

Sequence of human PAD4 (hPAD4) (Q9UM07 whole entry): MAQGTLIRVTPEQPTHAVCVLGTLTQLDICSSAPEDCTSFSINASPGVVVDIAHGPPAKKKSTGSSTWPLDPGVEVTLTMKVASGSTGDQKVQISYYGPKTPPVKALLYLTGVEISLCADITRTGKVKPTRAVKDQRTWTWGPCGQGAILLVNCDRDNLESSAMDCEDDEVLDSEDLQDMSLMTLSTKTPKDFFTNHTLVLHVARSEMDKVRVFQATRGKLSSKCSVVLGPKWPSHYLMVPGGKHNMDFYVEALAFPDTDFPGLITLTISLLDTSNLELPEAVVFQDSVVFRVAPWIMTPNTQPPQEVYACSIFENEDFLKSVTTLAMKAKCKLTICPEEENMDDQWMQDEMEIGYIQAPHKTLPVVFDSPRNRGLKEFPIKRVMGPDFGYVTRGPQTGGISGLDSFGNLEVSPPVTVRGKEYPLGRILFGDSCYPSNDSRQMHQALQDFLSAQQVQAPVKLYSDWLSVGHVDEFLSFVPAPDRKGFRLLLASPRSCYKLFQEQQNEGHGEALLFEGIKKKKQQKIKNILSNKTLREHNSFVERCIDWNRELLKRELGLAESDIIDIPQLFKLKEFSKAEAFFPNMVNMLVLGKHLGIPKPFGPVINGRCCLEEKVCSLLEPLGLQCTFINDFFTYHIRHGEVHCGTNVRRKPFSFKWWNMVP

The assay has as its target human PAD4 (hPAD4) (Homo sapiens (Human), UniProt Q9UM07). Put plainly: RFMS Human PAD4 Functional Assay 1. The class given is biochemical. The note with it: RFMS assay 1; 5 nM hPAD4, 250 μM BAEE substrate, 50 μM calcium, 37° C. The gist of the method: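 Citrullination product read by RapidFire triple-quad MRM against a modified-citrulline internal standard, after TCA stop and 30 min phenyl glyoxal step at 37 °C. Reaction: 250 μM BAEE, 5 nM human PAD4, 90 min at 37 °C, pH 7.5 HEPES buffer with 50 μM calcium and 5 μM TPEN, following 30 min compound–enzyme preincubation (max 50 μM).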
A word on the IC50: it is the concentration at which inhibition is half-maximal. As for `CO[C@H](C)C(=O)N1CCC(c2cccc3cc(-c4nn5cc(C(=O)N6C[C@H](N)C[C@@H](F)C6)ccc5c4C)n(CC4CC4)c23)CC1` [Example 461, (R)-1-(4-(2-(6-((3R,5R)-3-amino-5-fluoropiperidine-1-carbonyl)-3-methylpyrazolo[1,5-a]pyridin-2-yl)-1-(cyclopropylmethyl)-1H-indol-7-yl)piperidin-1-yl)-2-methoxypropan-1-one], the IC50 came to 0.08 µM.
As to `COc1cc(C(=O)N2CCC[C@@H](N)C2)cn2nc(-c3cc4ccc(-c5cccc(CNC(C)=O)c5)cc4n3CC3CC3)c(C)c12` [Example 232, N-{[3-(2-{6-[(3R)-3-Aminopiperidine-1-carbonyl]-4-methoxy-3-methylpyrazolo[1,5-a]pyridin-2-yl}-1-(cyclopropylmethyl)-1H-indol-6-yl)phenyl]methyl}acetamide], the IC50 was 0.9 µM.
The result for `COc1cc(C(=O)N2CCC[C@@H](N)C2)cn2nc(-c3cc4ccc(-c5cccc(CNS(C)(=O)=O)c5)cc4n3CC3CC3)c(C)c12` [Example 235, N-{[3-(2-{6-[(3R)-3-Aminopiperidine-1-carbonyl]-4-methoxy-3-methylpyrazolo[1,5-a]pyridin-2-yl}-1-(cyclopropylmethyl)-1H-indol-6-yl)phenyl]methyl}methanesulfonamide] reads 0.25 µM.
As for `COc1cc(C(=O)N2C[C@H](N)C[C@@H](F)C2)cn2nc(-c3cc4ccnc(OCCn5cnnc5)c4n3CC3CC3)c(C)c12` [Example 600, (2-(7-(2-(4H-1,2,4-Triazol-4-yl)ethoxy)-1-(cyclopropylmethyl)-1H-pyrrolo[2,3-c]pyridin-2-yl)-4-methoxy-3-methylpyrazolo[1,5-a]pyridin-6-yl)((3R,5R)-3-amino-5-fluoropiperidin-1-yl)methanone], the figure is 0.03 µM; as for `Cc1c(-c2cc3ccc(-c4cccc(O)c4F)nc3n2CC2CC2)nn2cc(C(=O)N3CC4CCC3[C@@H]4N)ccc12` (stereo partly drawn) [Example 68, ((7R)-7-Amino-2-azabicyclo[2.2.1]heptan-2-yl)(2-(1-(cyclopropylmethyl)-6-(2-fluoro-3-hydroxyphenyl)-1H-pyrrolo[2,3-b]pyridin-2-yl)-3-methylpyrazolo[1,5-a]pyridin-6-yl)methanone], 0.026 µM.
Turning to `CC(=O)N1CCC(c2cc(F)cc3cc(-c4nn5cc(C(=O)N6CCC[C@@H](N)C6)ccc5c4C)n(CC4CC4)c23)CC1` [Example 506, (R)-1-(4-(2-(6-(3-Aminopiperidine-1-carbonyl)-3-methylpyrazolo[1,5-a]pyridin-2-yl)-1-(cylcopropylmethyl)-5-fluoro-1H-indol-7-yl)piperidin-1-yl)ethan-1-one], the IC50 is 0.07 µM.
As for `Cc1c(-c2cc3ccc(-c4ccc5c(c4)C(=O)NC5)nc3n2CC2CC2)nn2cc(C(=O)N3CC4CCC3[C@@H]4N)cnc12` (stereo partly drawn) [Example 110, 6-(2-(6-((7R)-7-Amino-2-azabicyclo[2.2.1]heptane-2-carbonyl)-3-methylpyrazolo[1,5-a]pyrimidin-2-yl)-1-(cyclopropylmethyl)-1H-pyrrolo[2,3-b]pyridin-6-yl)isoindolin-1-one], the figure is 1.04 µM; as for `Cc1cc(-c2ccc3cc(-c4nn5cc(C(=O)N6C[C@H](N)C[C@@H](F)C6)ccc5c4C)n(CC4CC4)c3c2)ccc1C(N)=O` [Example 378, 4-(2-{6-[(3R,5R)-3-Amino-5-fluoropiperidine-1-carbonyl]-3-methylpyrazolo[1,5-a]pyridin-2-yl}-1-(cyclopropylmethyl)-1H-indol-6-yl)-2-methylbenzamide], 0.45 µM; as for `COCC(=O)N1CCC(c2cccc3cc(-c4nn5cc(C(=O)N6CCC[C@@H](N)C6)ccc5c4C)n(CC4CC4)c23)CC1` [Example 455, (R)-1-(4-(2-(6-(3-aminopiperidine-1-carbonyl)-3-methylpyrazolo[1,5-a]pyridin-2-yl)-1-(cyclopropylmethyl)-1H-indol-7-yl)piperidin-1-yl)-2-methoxyethan-1-one], 0.27 µM.
As for `Cc1c(-c2cc3cc(F)cc(C4CCN(C(=O)C5CCCO5)CC4)c3n2CC2CC2)nn2cc(C(=O)N3C[C@H](N)C[C@@H](F)C3)ccc12` (single isomer, unassigned) [Example 491], the figure is 1.31 µM; as for `COc1cc(C(=O)N2C[C@H](N)C[C@@H](F)C2)cc2sc(-c3cc4cccnc4n3CC3CC3)c(C)c12` [Example 138, ((3R,5R)-3-Amino-5-fluoropiperidin-1-yl)(2-(1-(cyclopropylmethyl)-1H-pyrrolo[2,3-b]pyridin-2-yl)-4-methoxy-3-methylbenzo[b]thiophen-6-yl)methanone], 0.252 µM.
With `Cc1c(-c2cc3cc(F)cc(C4CCN(C(=O)C5CCCO5)CC4)c3n2CC2CC2)nn2cc(C(=O)N3CCC[C@@H](N)C3)ccc12` (single isomer, unassigned) [Example 488], the concentration for half-maximal inhibition (IC50) came out at 0.25 µM.
The result for `Cc1c(-c2cc3ccnc(OCCn4cnnc4)c3n2CC2CC2)nn2cc(C(=O)N3CCC[C@@H](N)C3)ccc12` [Example 609, (R)-(2-(7-(2-(4H-1,2,4-Triazol-4-yl)ethoxy)-1-(cyclopropylmethyl)-1H-pyrrolo[2,3-c]pyridin-2-yl)-3-methylpyrazolo[1,5-a]pyridin-6-yl)(3-aminopiperidin-1-yl)methanone] reads 0.04 µM; that for `COc1cc(C(=O)N2C[C@H](N)C[C@@H](F)C2)cn2nc(-c3cc4ccc(N5CCC(OC)CC5)cc4n3CC3CC3)c(C)c12` [Example 35, ((3R,5R)-3-Amino-5-fluoropiperidin-1-yl)(2-(1-(cyclopropylmethyl)-6-(4-methoxypiperidin-1-yl)-1H-indol-2-yl)-4-methoxy-3-methylpyrazolo[1,5-a]pyridin-6-yl)methanone], 0.139 µM.
The result for `Cc1c(-c2cc3cccc(C4CCN(C(=O)[C@H]5CC[C@@H](O)CC5)CC4)c3n2CC2CC2)nn2cc(C(=O)N3C[C@H](N)C[C@@H](F)C3)ccc12` [Example 444, ((3R,5R)-3-amino-5-fluoropiperidin-1-yl)(2-(1-(cyclopropylmethyl)-7-(1-((1s,4s)-4-hydroxycyclohexane-1-carbonyl)piperidin-4-yl)-1H-indol-2-yl)-3-methylpyrazolo[1,5-a]pyridin-6-yl)methanone] reads 0.01 µM; that for `COCC(=O)N1CCC(c2cc(F)cc3cc(-c4nn5cc(C(=O)N6CCC[C@@H](N)C6)cc(OC)c5c4C)n(CC4CC4)c23)CC1` [Example 480, (R)-1-(4-(2-(6-(3-aminopiperidine-1-carbonyl)-4-methoxy-3-methylpyrazolo[1,5-a]pyridin-2-yl)-1-(cyclopropylmethyl)-5-fluoro-1H-indol-7-yl)piperidin-1-yl)-2-Methoxyethan-1-one], 0.14 µM.
As for `COc1cc(C(=O)N2C[C@H](N)C[C@@H](F)C2)cn2nc(-c3cc4ccc(-c5ccc(NC(C)=O)nc5)cc4n3CC3CC3)c(C)c12` [Example 226, N-[5-(2-{6-[(3R,5R)-3-Amino-5-fluoropiperidine-1-carbonyl]-4-methoxy-3-methylpyrazolo[1,5-a]pyridin-2-yl}-1-(cyclopropylmethyl)-1H-indol-6-yl)pyridin-2-yl]acetamide], the figure is 0.05 µM; as for `Cc1c(-c2cc3cccc(C4CCN(C(=O)[C@H]5CC[C@H](O)CC5)CC4)c3n2CC2CC2)nn2cc(C(=O)N3CCC[C@@H](N)C3)ccc12` [Example 443, ((R)-3-aminopiperidin-1-yl)(2-(1-(cyclopropylmethyl)-7-(1-((1r,4r)-4-hydroxycyclohexane-1-carbonyl)piperidin-4-yl)-1H-indol-2-yl)-3-methylpyrazolo[1,5-a]pyridin-6-yl)methanone], 0.13 µM; as for `Cc1c(-c2cc3ccc(-c4ccc5c(c4)C(=O)NC5)nc3n2CC2CC2)nn2cc(C(=O)N3CC4CCC3[C@@H]4N)cc(F)c12` (stereo partly drawn) [Example 46, 6-(2-(6-((7R)-7-Amino-2-azabicyclo[2.2.1]heptane-2-carbonyl)-4-fluoro-3-methylpyrazolo[1,5-a]pyridin-2-yl)-1-(cyclopropylmethyl)-1H-pyrrolo[2,3-b]pyridin-6-yl)isoindolin-1-one], 0.041 µM.
`CC(=O)NCc1cccc(-c2ccc3cc(-c4nn5cc(C(=O)N6CCC[C@@H](N)C6)ccc5c4C)n(CC4CC4)c3c2)c1` [Example 343, N-{[3-(2-{6-[(3R)-3-Aminopiperidine-1-carbonyl]-3-methylpyrazolo[1,5-a]pyridin-2-yl}-1-(cyclopropylmethyl)-1H-indol-6-yl)phenyl]methyl}acetamide]: the IC50 was found to be 0.05 µM.
As for `Cc1c(-c2cc3cccnc3n2CC2CC2)nn2cc(C(=O)N3C[C@H](N)C[C@@H](F)C3)ccc12` [Example 80, ((3R,5R)-3-Amino-5-fluoropiperidin-1-yl)(2-(1-(cyclopropylmethyl)-1H-pyrrolo[2,3-b]pyridin-2-yl)-3-methylpyrazolo[1,5-a]pyridin-6-yl)methanone], the IC50 was 1.61 µM.
The result for `Cc1cc(-c2ccc3cc(-c4nn5cc(C(=O)N6CC7CCC6[C@@H]7N)ccc5c4C)n(CC4CC4)c3c2)ccc1C(N)=O` (stereo partly drawn) [Example 334, 4-(2-{6-[(7R)-7-Amino-2-azabicyclo[2.2.1]heptane-2-carbonyl]-3-methylpyrazolo[1,5-a]pyridin-2-yl}-1-(cyclopropylmethyl)-1H-indol-6-yl)-2-methylbenzamide] reads 0.12 µM; that for `Cc1c(-c2cc3ccc(N4CCOCC4)nc3n2CC2CC2)nn2cc(C(=O)N3CC4CCC3[C@@H]4N)ccc12` (stereo partly drawn) [Example 318, (7R)-2-{2-[1-(Cyclopropylmethyl)-6-(morpholin-4-yl)-1H-pyrrolo[2,3-b]pyridin-2-yl]-3-methylpyrazolo[1,5-a]pyridine-6-carbonyl}-2-azabicyclo[2.2.1]heptan-7-amine], 0.31 µM.
As for `Cc1c(-c2cc3ccc(-c4ccc5[nH]ncc5c4)nc3n2CC2CC2)nn2cc(C(=O)N3C[C@H](N)C[C@@H](F)C3)cc(Cl)c12` [Example 290, (3R,5R)-1-{4-Chloro-2-[1-(cyclopropylmethyl)-6-(1H-indazol-5-yl)-1H-pyrrolo[2,3-b]pyridin-2-yl]-3-methylpyrazolo[1,5-a]pyridine-6-carbonyl}-5-fluoropiperidin-3-amine], the figure is 2.72 µM.
